Values quoted from earlier work as cited in patent US20140363510A1, “PHARMACEUTICAL COMPOSITION INCLUDING PIMOBENDAN” (BOEHRINGER INGELHEIM VETMEDICA GMBH, priority 2004, published 2014).

In the case of COc1ccc(-c2nc3ccc(C4=NNC(=O)CC4C)cc3[nH]2)cc1 (centres unmarked) [Pimobendan, 4,5-dihydro-6-[2-(4-methoxyphenyl)-1H-benzimidazol-5-yl]-5-methyl-3(2H)-pyridazone], the “solubility in aqueous media” value (aqueous media, pH-dependent) is given as “low solubility in aqueous media and a very highly pH-dependent solubility” and the solubility in water (water) is given as “hardly dissolves in water”.
